Reference: US10407429B2, “Pyrazolo[1,5-a]triazin-4-amine derivatives useful in therapy” (Curovir AB, priority 2015, dated 2019)

Columns and labels:
[1] = target: PI3Kα (Homo sapiens, UniProt P42336); test: Phosphatidyl inositol kinase inhibition assay (HTRF); type: biochemical
Source text: (§1) Phosphatidyl Inositol Kinase Inhibition Assay
(§2) Inhibition of PI3 kinases was studied using the HTRF (homogeneous time-resolved fluorescence) assay which is a universal method for identifying and characterizing the phosphotransferase activity induced by any ATP/ADP dependent target. The formation of ADP is detected by a specific monoclonal antibody labeled with Eu^3+ cryptate, and directly correlates with the amount of phosphorylated substrate in kinase assays

[2] = target: PI3Kβ (Homo sapiens, UniProt P42338); test: as above; type: biochemical
Chain of PI3Kβ (P42338 whole entry, species assumed): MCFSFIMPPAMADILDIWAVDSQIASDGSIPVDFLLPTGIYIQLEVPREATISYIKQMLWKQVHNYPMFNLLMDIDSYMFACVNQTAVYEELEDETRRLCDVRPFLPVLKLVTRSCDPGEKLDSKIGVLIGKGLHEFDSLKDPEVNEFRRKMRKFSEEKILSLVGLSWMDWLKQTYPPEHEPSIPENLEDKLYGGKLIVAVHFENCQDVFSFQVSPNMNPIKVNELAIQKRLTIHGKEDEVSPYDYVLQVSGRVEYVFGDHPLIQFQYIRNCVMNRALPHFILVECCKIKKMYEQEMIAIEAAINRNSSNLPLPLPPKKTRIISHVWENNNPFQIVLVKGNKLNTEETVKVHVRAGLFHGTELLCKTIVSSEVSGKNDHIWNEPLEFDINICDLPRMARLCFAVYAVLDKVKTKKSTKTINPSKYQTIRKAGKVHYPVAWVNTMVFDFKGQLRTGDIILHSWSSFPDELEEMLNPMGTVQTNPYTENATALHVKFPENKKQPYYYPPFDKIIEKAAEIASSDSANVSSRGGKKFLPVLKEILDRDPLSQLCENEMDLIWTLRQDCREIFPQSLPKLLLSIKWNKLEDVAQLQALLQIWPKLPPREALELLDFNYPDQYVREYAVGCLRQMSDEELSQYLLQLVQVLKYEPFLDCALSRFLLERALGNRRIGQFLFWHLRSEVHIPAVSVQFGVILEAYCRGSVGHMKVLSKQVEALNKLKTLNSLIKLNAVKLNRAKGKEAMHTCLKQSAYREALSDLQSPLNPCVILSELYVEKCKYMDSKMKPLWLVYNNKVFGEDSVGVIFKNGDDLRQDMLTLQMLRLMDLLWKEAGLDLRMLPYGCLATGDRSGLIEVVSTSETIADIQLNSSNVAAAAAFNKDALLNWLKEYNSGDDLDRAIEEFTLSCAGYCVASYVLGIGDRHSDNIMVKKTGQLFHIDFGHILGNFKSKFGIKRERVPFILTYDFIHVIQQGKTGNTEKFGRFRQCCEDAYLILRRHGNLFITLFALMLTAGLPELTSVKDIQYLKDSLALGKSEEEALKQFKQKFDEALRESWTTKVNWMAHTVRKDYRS
Chain of PI3Kβ (P27986 whole entry partner, species assumed): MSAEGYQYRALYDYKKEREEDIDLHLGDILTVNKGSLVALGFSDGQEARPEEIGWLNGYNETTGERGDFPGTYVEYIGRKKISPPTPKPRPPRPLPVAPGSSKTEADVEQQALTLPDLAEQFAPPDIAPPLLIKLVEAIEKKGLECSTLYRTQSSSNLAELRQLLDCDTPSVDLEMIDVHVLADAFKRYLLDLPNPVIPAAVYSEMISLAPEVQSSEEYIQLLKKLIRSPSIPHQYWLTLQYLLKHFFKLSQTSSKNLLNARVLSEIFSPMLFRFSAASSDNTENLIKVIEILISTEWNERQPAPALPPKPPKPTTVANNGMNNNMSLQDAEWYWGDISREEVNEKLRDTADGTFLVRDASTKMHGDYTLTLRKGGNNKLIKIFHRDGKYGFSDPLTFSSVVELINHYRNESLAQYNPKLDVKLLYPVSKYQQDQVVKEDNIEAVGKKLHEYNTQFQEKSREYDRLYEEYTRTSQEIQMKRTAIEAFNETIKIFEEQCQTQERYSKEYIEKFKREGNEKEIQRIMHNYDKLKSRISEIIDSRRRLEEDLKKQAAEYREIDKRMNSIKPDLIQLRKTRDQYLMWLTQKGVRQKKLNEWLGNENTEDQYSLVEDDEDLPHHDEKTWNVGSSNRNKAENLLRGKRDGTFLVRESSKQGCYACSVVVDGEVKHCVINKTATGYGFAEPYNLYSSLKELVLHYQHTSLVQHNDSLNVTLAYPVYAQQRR
Source text: as §1, §2

[3] = tested on: coxsackie B5virus; test: Antiviral CPE assay in mammalian cell culture; type: cell-based; details: read-out: inhibition capacity (IC50) B5
[4] = tested on: Enterovirus 71; test: Antiviral CPE assay in mammalian cell culture; type: cell-based; details: Enterovirus A, EV71, prevention of viral CPE, read-out: inhibition capacity (IC50) EV71
[5] = target: PI4KIIIα (Homo sapiens, UniProt P42356); test: Phosphatidyl inositol kinase inhibition assay (ADP-Glo Kinase Assay); type: biochemical
Procedure: (§3) Phosphatidyl Inositol Kinase Inhibition Assay Inhibition of PI4 kinases was studied using the ADP-Glo™ Kinase Assay which is a luminescent kinase assay that measures ADP formed from a kinase reaction; ADP is converted into ATP, which is converted into light by Ultra-Glo™ Luciferase. The assay is performed in two steps; first, after the kinase reaction, an equal volume of ADP-Glo™ Reagent is added to terminate the kinase reaction and deplete the remaining ATP. In the second step, the Kinase Detection Reagent is added, which simultaneously converts ADP to ATP and allows the newly synthesized ATP to be measured using a coupled luciferase/luciferin reaction. The luminescent signal produced is proportional to the activity of the kinase.

[6] = target: PI4KIIIβ (Homo sapiens, UniProt Q9UBF8); test: as above; type: biochemical
Chain of PI4KIIIβ (Q9UBF8 whole entry): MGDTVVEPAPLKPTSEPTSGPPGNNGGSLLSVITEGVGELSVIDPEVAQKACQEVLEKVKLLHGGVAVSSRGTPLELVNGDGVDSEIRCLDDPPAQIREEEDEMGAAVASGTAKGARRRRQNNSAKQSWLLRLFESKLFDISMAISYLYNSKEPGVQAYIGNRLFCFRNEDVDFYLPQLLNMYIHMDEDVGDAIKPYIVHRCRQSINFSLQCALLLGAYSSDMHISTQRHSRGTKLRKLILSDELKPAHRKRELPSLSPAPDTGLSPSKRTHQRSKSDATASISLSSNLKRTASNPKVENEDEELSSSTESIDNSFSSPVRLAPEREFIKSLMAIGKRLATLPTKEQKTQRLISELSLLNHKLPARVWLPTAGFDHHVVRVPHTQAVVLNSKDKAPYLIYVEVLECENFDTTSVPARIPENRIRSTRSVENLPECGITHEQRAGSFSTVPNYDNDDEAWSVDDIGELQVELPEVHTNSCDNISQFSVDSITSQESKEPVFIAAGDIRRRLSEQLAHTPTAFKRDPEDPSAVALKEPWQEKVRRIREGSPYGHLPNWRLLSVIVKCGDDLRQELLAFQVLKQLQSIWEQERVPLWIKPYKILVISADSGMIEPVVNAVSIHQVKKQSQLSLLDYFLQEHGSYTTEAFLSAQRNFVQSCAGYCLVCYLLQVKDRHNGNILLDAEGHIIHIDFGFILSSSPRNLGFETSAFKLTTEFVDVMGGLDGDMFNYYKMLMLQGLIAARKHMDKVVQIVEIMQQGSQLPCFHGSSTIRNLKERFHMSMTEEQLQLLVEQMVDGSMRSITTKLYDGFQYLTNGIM
Procedure: as §3

[7] = tested on: Enterovirus 30; test: Antiviral CPE assay in mammalian cell culture; type: cell-based; details: Enterovirus, read-out: inhibition capacity (IC50) EV30
[8] = tested on: polio virus Sabin 1; test: organism not typed; type: cell-based; details: read-out: inhibition capacity (IC50) Polio 1
[9] = tested on: coxsackie B2 virus; test: Antiviral CPE assay in mammalian cell culture; type: cell-based; details: read-out: inhibition capacity (IC50) B2
[10] = tested on: coxsackie B3 virus; test: Antiviral CPE assay in mammalian cell culture; type: cell-based; details: Enterovirus B, B3, read-out: inhibition capacity (IC50) B3
[11] = tested on: coxsackie B1 virus; test: Antiviral CPE assay in mammalian cell culture; type: cell-based; details: read-out: inhibition capacity (IC50) Bl
[12] = tested on: coxsackie B 4 virus; test: Antiviral CPE assay in mammalian cell culture; type: cell-based; details: Enterovirus B, B4, read-out: inhibition capacity (IC50) B4
[13] = tested on: Enterovirus 68; test: Antiviral CPE assay in mammalian cell culture; type: cell-based; details: Enterovirus D, EV68, read-out: inhibition capacity (IC50) EV68
[14] = tested on: Enterovirus 6; test: Antiviral CPE assay in mammalian cell culture; type: cell-based; details: prevention of viral CPE, read-out: inhibition capacity (IC50) EV6

Chain of PI3Kα (P42336 whole entry, species assumed): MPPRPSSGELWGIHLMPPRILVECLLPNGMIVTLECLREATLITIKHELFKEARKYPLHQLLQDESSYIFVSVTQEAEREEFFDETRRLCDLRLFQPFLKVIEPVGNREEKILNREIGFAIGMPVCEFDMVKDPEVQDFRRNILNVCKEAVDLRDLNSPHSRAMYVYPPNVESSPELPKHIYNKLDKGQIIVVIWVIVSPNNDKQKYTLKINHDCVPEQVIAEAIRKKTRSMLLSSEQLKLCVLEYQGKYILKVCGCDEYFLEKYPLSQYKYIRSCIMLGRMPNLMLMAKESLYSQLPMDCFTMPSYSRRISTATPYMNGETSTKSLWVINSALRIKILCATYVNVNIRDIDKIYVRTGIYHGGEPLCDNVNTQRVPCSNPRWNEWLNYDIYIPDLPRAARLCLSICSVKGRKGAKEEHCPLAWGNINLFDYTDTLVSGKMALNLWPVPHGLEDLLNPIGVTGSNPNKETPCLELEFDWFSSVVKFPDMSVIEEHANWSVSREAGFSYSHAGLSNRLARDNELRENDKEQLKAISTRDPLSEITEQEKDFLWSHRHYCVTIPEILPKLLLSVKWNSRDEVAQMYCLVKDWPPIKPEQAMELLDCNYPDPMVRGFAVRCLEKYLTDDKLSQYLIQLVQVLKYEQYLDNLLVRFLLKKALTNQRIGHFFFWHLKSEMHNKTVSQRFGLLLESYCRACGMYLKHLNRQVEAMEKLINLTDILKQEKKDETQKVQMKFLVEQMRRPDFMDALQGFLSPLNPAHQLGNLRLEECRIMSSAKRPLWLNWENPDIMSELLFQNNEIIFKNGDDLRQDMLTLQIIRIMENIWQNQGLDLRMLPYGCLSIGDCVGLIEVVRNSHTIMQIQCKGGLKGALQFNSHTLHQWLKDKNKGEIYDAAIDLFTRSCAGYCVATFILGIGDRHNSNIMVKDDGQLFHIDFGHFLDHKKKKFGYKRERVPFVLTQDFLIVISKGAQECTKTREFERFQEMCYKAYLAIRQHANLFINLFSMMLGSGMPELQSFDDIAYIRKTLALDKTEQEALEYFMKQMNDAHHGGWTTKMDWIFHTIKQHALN
Chain of PI3Kα (P27986 whole entry partner, species assumed): as the sequence (P27986 whole entry partner, species assumed) above

Row | SMILES | IC50 [1] | IC50 [2] | IC50 [3] | IC50 [4] | IC50 [5] | IC50 [6] | IC50 [7] | IC50 [8] | IC50 [9] | IC50 [10] | IC50 [11] | IC50 [12] | IC50 [13] | IC50 [14]
1 | COc1ccc(-c2c(C)nn3c(NCc4ccc(S(N)(=O)=O)cc4)nc(C)nc23)cc1OC [Example 14, 4-[[[8-(3,4-dimethoxyphenyl)-2,7-dimethyl-pyrazolo[1,5-a][1,3,5]triazin-4-yl]amino]methyl]benzenesulfonamide] | > 10000 nM | > 10000 nM | < 10 nM | < 10 nM | 1300 nM | 2.1 nM | < 10 nM | < 10 nM | < 100 nM | < 100 nM | < 100 nM | < 100 nM | < 10 nM | –
2 | COc1ccc(-c2c(C)nn3c(NCc4ccncc4)nc(C)nc23)cc1OC [Example 6, 8-(3,4-dimethoxyphenyl)-2,7-dimethyl-N-(4-pyridylmethyl)pyrazolo[1,5-a][1,3,5]triazin-4-amine] | 7300 nM | > 10000 nM | < 10 nM | < 10 nM | 3200 nM | 1.3 nM | < 100 nM | < 10 nM | < 10 nM | < 10 nM | < 10 nM | < 10 nM | < 10 nM | < 10 nM
